Laboratory results published in patent US5436137A, “DNA sequence which encodes a peptide capable of promoting acrosome reaction” (Oregon Regional Primate Research Center, priority 1993, dated 1995).

Tests used:
human sperm = assay: acrosome reaction in capacitated human sperm (acrosome specific monoclonal antibody, FITC fluorescence); type: cell-based; settings: bombesin at a concentration as low as 5 nM, added after overnight capacitation, FIG. 5
Experimental: (§1) To measure the effects of bombesin on the acrosome reaction, capacitation was conducted in the presence or absence of bombesin. After incubation, samples of sperm were removed to determine the percentage of sperm which had undergone the acrosome reaction as measured with an acrosome specific monoclonal antibody and FITC fluorescence [see Wolf, D. P. Am. J. Reprod. Immunol. 20:106-113 (1989), which is hereby incorporated by reference].
For human sperm, capacitation was achieved by overnight incubation of sperm in balanced salt and 0.3% bovine serum albumin, after which bombesin was added to induce the acrosome reaction.

monkey sperm = assay: acrosome reaction in capacitated monkey sperm (acrosome specific monoclonal antibody, FITC fluorescence); type: cell-based; settings: bombesin at a concentration as low as 5 nM, present during 60 minutes capacitation, FIG. 5
Experimental: For monkeys, sperm was collected, washed twice in balanced salts, resuspended in lactate/bicarbonate and dibutyryl cAMP, and then incubated for 60 minutes. […] See Wolf, D. P. et al. Mol. Reprod. Dev. 27:261-280 (1990); Lanzendorf, S. E. et al. Mol. Reprod. Dev. 25:61-66 (1990); and Wolf D. P. et al. Biol. Reprod. 41:335-346 (1989). All of these three publications are hereby incorporated by reference.
as §1

## CSCC[C@H](NC(=O)[C@H](CC(C)C)NC(=O)[C@H](Cc1cnc[nH]1)NC(=O)CNC(=O)[C@@H](NC(=O)[C@H](C)NC(=O)[C@H](Cc1c[nH]c2ccccc12)NC(=O)[C@H](CCC(N)=O)NC(=O)[C@H](CC(N)=O)NC(=O)CNC(=O)[C@H](CC(C)C)NC(=O)[C@H](CCCN=C(N)N)NC(=O)[C@H](CCC(N)=O)NC(=O)[C@@H]1CCC(=O)N1)C(C)C)C(N)=O [bombesin]
Human sperm
  increase in the acrosome reaction: 2 fold
Monkey sperm
  increase in the acrosome reaction: 2 fold
